In assay [1] the target is T1, cloned human glucagon receptor (Homo sapiens, UniProt P47871).
T1 construct: expressed in transfected cells; plasma membrane preparation
Briefly: Glucagon Binding Assay (II). The procedure: Binding of compounds to the glucagon receptor was determined in a competition binding assay using the cloned human glucagon receptor.
The receptor inserted in the pLJ6′ expression vector using EcoRI/SSt1 restriction sites (Lok et al.) was expressed in a baby hamster kidney cell line (A3 BHK 570-25).
The homogenate was resuspended and centrifuged again. The final precipitate containing the plasma membranes was suspended in buffer and stored at −80° C. until use.
Binding assays were carried out in duplicate in polypropylene tubes or microtiter plates. The buffer used in this assay was 50 mM HEPES pH 7.4 containing 5 mM EGTA, 5 mM MgCl2 and 0.005% Tween 20. Sample (glucagon (Bachem CA) or test compounds) was added to each tube or well. Tracer (˜25.000 cpm) was diluted in buffer and was added to each tube or well. 0.5 mg freshly thawed plasma membrane protein diluted in buffer was then added in aliquots to each tube or well. Tubes or plates were incubated at 37° C. for 1 hour. Non-specific binding was determined with 10^−7 M of glucagon. Bound tracer and unbound tracer were then separated by vacuum filtration. The tubes or wells were washed twice with 0.01% Triton X-100 buffer. Scintillation fluid was added to the plates and radioactivity was quantified using a scintillation counter.

In the next assay the target is T2, human glucagon receptor (Homo sapiens, UniProt P47871).
T2 construct: expressed in transfected cells; host or cells: BHK (baby hamster kidney) cells
T2 sequence (P47871 26-477): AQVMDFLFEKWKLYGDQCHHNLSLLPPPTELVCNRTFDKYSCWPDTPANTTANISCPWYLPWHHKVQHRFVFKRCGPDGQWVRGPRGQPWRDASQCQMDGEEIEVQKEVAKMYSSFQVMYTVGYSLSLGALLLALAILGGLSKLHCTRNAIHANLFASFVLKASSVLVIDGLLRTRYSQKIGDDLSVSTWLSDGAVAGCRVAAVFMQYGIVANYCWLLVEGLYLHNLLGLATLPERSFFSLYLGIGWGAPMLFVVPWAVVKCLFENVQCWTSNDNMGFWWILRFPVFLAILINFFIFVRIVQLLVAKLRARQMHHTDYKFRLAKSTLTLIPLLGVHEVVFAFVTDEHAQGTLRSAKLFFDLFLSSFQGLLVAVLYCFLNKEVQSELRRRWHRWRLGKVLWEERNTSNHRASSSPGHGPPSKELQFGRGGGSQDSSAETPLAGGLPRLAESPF
Briefly: Glucagon Binding Assay (III). The conditions noted are these: BHK cell membranes, WGA SPA beads, 125I-glucagon; read-out: Glu Bd Assay (III) IC50. Summed up:
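Non-specific binding was set with 500 nM glucagon in this SPA-type binding assay using WGA beads. The receptor source was a membrane preparation, kept on ice or at 4 °C, from BHK cells transfected with the human receptor. Scintillation counts were taken after 4 hours of shaking and 8–48 hours of settling.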

Setting [2] is: plasma membranes of BHK cells expressing the receptor, read-out: Glu Bd Assay (II) IC50.

Like-named read-outs stand apart in the source and are kept apart here.

The values below come from US6875760B2 (Novo Nordisk A/S, priority 1999, dated 2005).

What is called IC50 is the concentration that inhibits the measured activity by half.

T1 sequence (P47871 26-477): as above

Regarding `CC(C)(C)C1CCC(N(Cc2ccc(C(=O)NCCC(=O)O)cc2)C(=O)CNC(=O)OCC2c3ccccc3-c3ccccc32)CC1` (stereo not shown), the IC50 in assay [1] (setting [2]) was determined as 0.687 µM.

In the case of `CC1CCC(N(Cc2ccc(C(=O)NCCC(=O)O)cc2)C(=O)Nc2ccc(-c3ccccc3)cc2)CC1` (stereo not shown), the half-inhibitory concentration (IC50) in assay [1] (setting [2]) is 0.516 µM.

As to `COC(=O)CCNC(=O)c1ccc(CN(C(=O)Nc2cc(C(F)(F)F)cc(C(F)(F)F)c2)C2CCC(C(C)(C)C)CC2)cc1` (stereo not shown), the 50% inhibitory concentration (IC50) in assay [1] (setting [2]) came to 0.101 µM.

As for `CC(C)CC1CCC(N(Cc2ccc(C(=O)NCCC(=O)O)cc2)C(=O)Nc2ccc(OC(F)(F)F)cc2)CC1` (stereo not shown), the IC50 in assay [1] turned out to be 0.14 µM.

`CCCCOC(=O)c1ccc(NC(=O)N(Cc2ccc(C(=O)NCCC(=O)O)cc2)C2CCCCCC2)cc1`: the half-maximal inhibitory concentration (IC50) in assay [1] (setting [2]) was 0.217 µM.

For `CCCCOC(=O)c1ccc(NC(=O)N(Cc2ccc(C(=O)NCCC(=O)O)cc2)CC2CCCCC2)cc1`, the IC50 in assay [1] (setting [2]) was 0.264 µM.

With `CCCCOC(=O)c1ccc(NC(=O)N(Cc2ccc(C(=O)NCCC(=O)O)cc2)C2CCC(C)CC2)cc1` (stereo not shown), in assay [1] (setting [2]), the 50% inhibitory concentration (IC50) turned out to be 0.188 µM.

For `CCCCOC(=O)c1ccc(NC(=O)N(CCC(C)C)Cc2ccc(C(=O)NCCC(=O)O)cc2)cc1`, the concentration for half-maximal inhibition (IC50) in assay [1] (setting [2]) came to 0.254 µM.

As to `CCCCOC(=O)c1ccc(NC(=O)N(Cc2ccc(C(=O)NCCC(=O)O)cc2)CC(C)(C)C)cc1`, in assay [1] (setting [2]), the 50% inhibitory concentration (IC50) was found to be 0.23 µM.

With `CCCCOC(=O)c1ccc(NC(=O)N(Cc2ccc(C(=O)NCCC(=O)O)cc2)C2CCCC(C)C2)cc1` (stereo not shown), the IC50 in assay [1] (setting [2]) worked out at 0.278 µM.

Regarding `O=C(O)CCNC(=O)c1ccc(CN(CCc2ccc(Cl)cc2)C(=O)Nc2ccc(OCc3ccccc3)cc2)cc1`, the IC50 in assay [1] (setting [2]) came out at 0.4 µM.

Consider `CC(C)(C)C1CCC(N(Cc2ccc(C(=O)NCCC(=O)O)cc2)C(=O)Nc2cc(C(F)(F)F)cc(C(F)(F)F)c2)CC1` (stereo not shown), for which the concentration for half-maximal inhibition (IC50) in assay [1] (setting [2]) was 0.01 µM.

In the case of `O=C(Nc1nn[nH]n1)c1ccc(CN(C(=O)Nc2cccc(I)c2)c2ccc(C3=CCCCC3)cc2)cc1`, the concentration for half-maximal inhibition (IC50) in assay [1] (setting [2]) was found to be 0.026 µM.

As to `CC(C)(C)C1CCC(N(Cc2ccc(CNc3nn[nH]n3)cc2)C(=O)Nc2ccc(OC(F)(F)F)cc2)CC1` (mixture of isomers) [Example 579, 1-(4-tert-Butylcyclohexyl)-1-{4-[(2H-tetrazol-5-ylamino)methyl]benzyl}-3-(4-trifluoromethoxyphenyl)urea], in assay [1] (setting [2]), the IC50 is 0.242 µM.

With `CCCCN1C(=O)c2ccc(NC(=O)N(Cc3ccc(C(=O)NCCC(=O)O)cc3)c3ccc(C(C)(C)C)cc3)cc2C1=O` [Example 626, 3-{4-[3-(N′-Butylphthalimid-4-yl)-1-(4-tert-butylphenyl)ureidomethyl]benzoylamino}propionic acid], the half-maximal inhibitory concentration (IC50) at human glucagon receptor stood at 0.038 µM.

Take `CC(C)N1C(=O)c2ccc(NC(=O)N(Cc3ccc(C(=O)Nc4nn[nH]n4)cc3)c3ccc(C4CCCCC4)cc3)cc2C1=O` [Example 627, 4-[1-(4-Cyclohexylphenyl)-3-(N-isopropylphthalimid-4-yl)ureidomethyl]-N-(2H-tetrazol-5-yl)benzamide]: the IC50 on human glucagon receptor worked out at 0.008 µM.

Consider `CC(C)N1C(=O)c2ccc(NC(=O)N(Cc3ccc(C(=O)Nc4nn[nH]n4)cc3)c3ccc(C(C)(C)C)cc3)cc2C1=O` [Example 628, 4-[1-(4-tert-Butyl-phenyl)-3-(N′-isopropylphthalimid-4-yl)ureidomethyl]-N-(2H-tetrazol-5-yl)benzamide], for which, on human glucagon receptor, the IC50 was 0.035 µM.

In the case of `CC(C)N1C(=O)c2ccc(NC(=O)N(Cc3ccc(C(=O)Nc4nn[nH]n4)cc3)C3CCC(C(C)(C)C)CC3)cc2C1=O` (stereo not shown) [Example 629, 4-[1-(4-tert-Butylcyclohexyl)-3-(N′-isopropylphthalimid-5-yl)ureidomethyl]-N-(2H-tetrazol-5-yl)benzamide], at human glucagon receptor, the IC50 is 0.045 µM.

As to `CC(C)N1C(=O)c2ccc(NC(=O)N(Cc3ccc(C(=O)NCCC(=O)O)cc3)c3ccc(C(C)(C)C)cc3)cc2C1=O` [Example 630, 3-{4-[1-(4-tert-Butylphenyl)-3-(N′-isopropylphthalimid-4-yl)ureidomethyl]benzoylamino}propionic acid], the IC50 at human glucagon receptor stood at 0.073 µM.

For `CC(C)N1C(=O)c2ccc(NC(=O)N(Cc3ccc(C(=O)NCCC(=O)O)cc3)c3ccc(C4CCCCC4)cc3)cc2C1=O` [Example 631, 3-{4-[1-(4-Cyclohexyl-phenyl)-3-(N′-isopropylphthalimid-4-yl)ureidomethyl]benzoylamino}propionic acid], the IC50 on human glucagon receptor is 0.023 µM.

Consider `CC(C)N1C(=O)c2ccc(NC(=O)N(Cc3ccc(C(=O)NCCC(=O)O)cc3)C3CCC(C(C)(C)C)CC3)cc2C1=O` (stereo not shown) [Example 632, 3-{4-[1-(4-tert-Butylcyclohexyl)-3-(N′-isopropylphthalimid-4-yl)ureidomethyl]benzoylamino}propionic acid], for which the concentration for half-maximal inhibition (IC50) on human glucagon receptor was found to be 0.091 µM.

As to `CCCCN1C(=O)c2ccc(NC(=O)N(Cc3ccc(C(=O)Nc4nn[nH]n4)cc3)C3CCC(C(C)(C)C)CC3)cc2C1=O` (stereo not shown) [Example 633, 4-[1-(4-tert-Butylcyclohexyl)-3-(N′-butylphthalimid-4-yl)ureidomethyl]-N-(2H-tetrazol-5-yl)benzamide], the half-maximal inhibitory concentration (IC50) on human glucagon receptor was 0.019 µM.

For the compound `CCCCN1C(=O)c2ccc(NC(=O)N(Cc3ccc(C(=O)NCCC(=O)O)cc3)c3ccc(C4CCCCC4)cc3)cc2C1=O` [Example 635, 3-{4-[3-(N′-Butylphthalimid-4-yl)-1-(4-cyclohexylphenyl)ureidomethyl]benzoylamino}propionic acid], the IC50 on human glucagon receptor stood at 0.018 µM.

Take `CCCCN1C(=O)c2ccc(NC(=O)N(Cc3ccc(C(=O)Nc4nn[nH]n4)cc3)c3ccc(C4CCCCC4)cc3)cc2C1=O` [Example 636, 4-[3-(N′-Butylphthalimid-4-yl)-1-(4-cyclohexylphenyl)ureidomethyl]-N-(2H-tetrazol-5-yl)benzamide]: the IC50 on human glucagon receptor was determined as 0.005 µM.

On to `CCCCN1C(=O)c2ccc(NC(=O)N(Cc3ccc(C(=O)NCCC(=O)O)cc3)C3CCC(C(C)(C)C)CC3)cc2C1=O` (stereo not shown) [Example 637, 3-{4-[1-(4-tert-Butylcyclohexyl)-3-(N′-butylphthalimid-4-yl)ureidomethyl]benzoylamino}propionic acid], for which the half-maximal inhibitory concentration (IC50) on human glucagon receptor is 0.116 µM.

For the compound `O=C(Nc1nn[nH]n1)c1ccc(CN(C(=O)Nc2ccc3c(c2)C(=O)N(CC2CC2)C3=O)c2ccc(C3CCCCC3)cc2)cc1` [Example 639, 4-[1-(4-Cyclohexylphenyl)-3-(N′-[cyclopropylmethyl]phthalimid-4-yl)ureidomethyl]-N-(2H-tetrazol-5-yl)benzamide], at human glucagon receptor, the IC50 is 0.004 µM.

`CC(C)(C)c1ccc(N(Cc2ccc(C(=O)Nc3nn[nH]n3)cc2)C(=O)Nc2ccc3c(c2)C(=O)N(CC2CC2)C3=O)cc1` [Example 640, 4-[1-(4-tert-Butylphenyl)-3-(N′-[cyclopropylmethyl]phthalimid-4-yl)ureidomethyl]-N-(2H-tetrazol-5-yl)benzamide]: the IC50 on human glucagon receptor turned out to be 0.006 µM.

In the case of `CC(C)(C)C1CCC(N(Cc2ccc(C(=O)NCCC(=O)O)cc2)C(=O)Nc2ccc3c(c2)C(=O)N(CC2CC2)C3=O)CC1` (stereo not shown) [Example 641, 3-{4-[1-(4-tert-Butylcyclohexyl)-3-(N′-[cyclopropylmethyl]phthalimid-4-yl)ureidomethyl]benzoylamino}propionic acid], the IC50 on human glucagon receptor was 0.021 µM.

`O=C(O)CCNC(=O)c1ccc(CN(C(=O)Nc2ccc3c(c2)C(=O)N(CC2CC2)C3=O)c2ccc(C3CCCCC3)cc2)cc1` [Example 642, 3-{4-[3-(N′-[Cyclopropylmethyl]phthalimid-4-yl)-1-(4-cyclohexylphenyl)ureidomethyl]benzoylamino}propionic acid]: the 50% inhibitory concentration (IC50) on human glucagon receptor was 0.007 µM.

Turning to `CC(C)(C)c1ccc(N(Cc2ccc(C(=O)NCCC(=O)O)cc2)C(=O)Nc2ccc3c(c2)C(=O)N(CC2CC2)C3=O)cc1` [Example 643, 3-{4-[3-(N′-[Cyclopropylmethyl]phthalimid-4-yl)-1-(4-tert-butylphenyl)ureidomethyl]benzoylamino}propionic acid], the IC50 at human glucagon receptor came out at 0.038 µM.

Consider `O=C(Nc1nn[nH]n1)c1ccc(CN(C(=O)Nc2ccc3c(c2)C(=O)N(CC2CC2)C3=O)c2ccc(C3=CCCCC3)cc2)cc1` [Example 644, 4-[3-(N′-[Cyclopropylmethyl]phthalimid-4-yl)-1-(4-cyclohex-1-enylphenyl)ureidomethyl]-N-(2H-tetrazol-5-yl)benzamide], for which the IC50 on human glucagon receptor came out at 0.004 µM.

As to `O=C(O)CCNC(=O)c1ccc(CN(C(=O)Nc2ccc3c(c2)C(=O)N(CC2CC2)C3=O)c2ccc(C3=CCCCC3)cc2)cc1` [Example 645, 3-{4-[1-(4-Cyclohex-1-enylphenyl)-3-(N′-[cyclopropylmethyl]phthalimid-4-yl)ureidomethyl]benzoylamino}propionic acid], the IC50 on human glucagon receptor is 0.007 µM.

`CC(c1ccc(C(=O)Nc2nn[nH]n2)cc1)N(C(=O)Nc1ccc(OC(F)(F)F)cc1)c1ccc(C(C)(C)C)cc1` (stereo not shown) [Example 646, 4-{1-[1-(4-tert-Butylphenyl)-3-(4-trifluoromethoxyphenyl)ureido]ethyl}-N-(2H-tetrazol-5-yl)benzamide]: the half-maximal inhibitory concentration (IC50) on human glucagon receptor stood at 0.022 µM.

“(4-tert-Butylcyclohexyl)-3-(N′-[cyclopropylmethyl]phthalimid-4-yl)ureidomethyl]-N-(2H-tetrazol-5-yl)benzamide [Example 638]”: on human glucagon receptor, the IC50 came out at 0.011 µM.
